# Experiments:
# Experiment in all cases: relative viability (nuclei count vs DMSO), 5 days (fraction); higher = more cells survive
# Carfilzomib + Pemetrexed = compound: CC(C)C[C@H](NC(=O)[C@H](CCc1ccccc1)NC(=O)CN1CCOCC1)C(=O)N[C@@H](Cc1ccccc1)C(=O)N[C@@H](CC(C)C)C(=O)[C@@]1(C)CO1 [Carfilzomib] + Nc1nc2[nH]cc(CCc3ccc(C(=O)N[C@@H](CCC(=O)O)C(=O)O)cc3)c2c(=O)[nH]1 [Pemetrexed] (partner 0.2 µM)
# How it was run: (§1)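 Relative viability equals treated-well nuclei counts divided by vehicle-well nuclei counts. Counts came from 4× images of lung cancer cell lines grown in 1536-well plates for 5 days after pin-tool dosing on the day after seeding. Dosing used one drug alone or a fixed anchor-drug dose plus five library-drug doses (not always all listed) in √10 steps, and values are medians of duplicate plates.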
# Carfilzomib + Olaparib = compound: CC(C)C[C@H](NC(=O)[C@H](CCc1ccccc1)NC(=O)CN1CCOCC1)C(=O)N[C@@H](Cc1ccccc1)C(=O)N[C@@H](CC(C)C)C(=O)[C@@]1(C)CO1 [Carfilzomib] + O=C(c1cc(Cc2n[nH]c(=O)c3ccccc23)ccc1F)N1CCN(C(=O)C2CC2)CC1 [Olaparib] (partner 8 µM)
# How it was run: as §1
# Crizotinib + Phenformin = compound: C[C@@H](Oc1cc(-c2cnn(C3CCNCC3)c2)cnc1N)c1c(Cl)ccc(F)c1Cl [Crizotinib] + N=C(N)NC(=N)NCCc1ccccc1 [Phenformin] (partner 250 µM)
# How it was run: as §1
# Olaparib + OSI-027 = compound: O=C(c1cc(Cc2n[nH]c(=O)c3ccccc23)ccc1F)N1CCN(C(=O)C2CC2)CC1 [Olaparib] + COc1cccc2cc(-c3nc([C@H]4CC[C@H](C(=O)O)CC4)n4ncnc(N)c34)[nH]c12 [OSI-027] (partner 0.5 µM)
# How it was run: as §1
Cell Line,relative viability (Carfilzomib + Pemetrexed; first compound 0.001 µM),relative viability (Carfilzomib + Pemetrexed; first compound 0.003162 µM),relative viability (Carfilzomib + Pemetrexed; first compound 0.01 µM),relative viability (Carfilzomib + Pemetrexed; first compound 0.03162 µM),relative viability (Carfilzomib + Pemetrexed; first compound 0.1 µM),relative viability (Carfilzomib + Olaparib; first compound 0.001 µM),relative viability (Carfilzomib + Olaparib; first compound 0.003162 µM),relative viability (Carfilzomib + Olaparib; first compound 0.01 µM),relative viability (Carfilzomib + Olaparib; first compound 0.03162 µM),relative viability (Carfilzomib + Olaparib; first compound 0.1 µM),relative viability (Crizotinib + Phenformin; first compound 0.01 µM),relative viability (Crizotinib + Phenformin; first compound 0.03162 µM),relative viability (Crizotinib + Phenformin; first compound 0.1 µM),relative viability (Crizotinib + Phenformin; first compound 0.3162 µM),relative viability (Crizotinib + Phenformin; first compound 1 µM),relative viability (Olaparib + OSI-027; first compound 0.08 µM),relative viability (Olaparib + OSI-027; first compound 0.253 µM),relative viability (Olaparib + OSI-027; first compound 2.53 µM),relative viability (Olaparib + OSI-027; first compound 8 µM)
201T,0.33,0.33,0.337,0.351,0.312,0.83,0.838,0.856,0.907,0.546,0.42,0.48,0.455,0.445,0.726,0.724,0.611,0.699,0.764
A549,–,–,–,–,–,0.344,0.301,0.405,0.0248,0.0273,0.165,0.136,0.167,0.141,0.172,–,–,–,–
A-427,0.951,1.02,0.983,0.842,0.183,0.782,0.827,0.749,0.271,0.147,0.303,0.349,0.419,–,0.28,0.558,0.469,0.396,0.389
ABC-1,–,–,–,–,–,0.768,0.846,0.348,0.324,0.26,–,0.22,0.211,0.238,0.269,0.801,0.52,0.488,0.55
BEN,0.743,0.778,0.787,0.599,0.352,1.02,1.29,1.18,1.03,0.376,0.259,0.253,0.256,0.235,0.257,–,0.268,0.301,0.296
CAL-12T,1.19,1.37,1.15,0.832,0.168,0.765,0.744,0.702,0.265,0.145,0.503,0.609,0.606,–,0.558,1.05,0.568,0.602,0.627
COR-L23,0.2,0.187,0.185,0.123,0.0834,0.392,0.435,0.36,0.0646,0.0712,0.376,0.409,0.426,0.389,0.428,0.723,0.635,0.712,0.424
COR-L 105,1.24,1.09,1.19,0.469,0.317,0.704,0.735,0.716,0.465,0.301,0.384,0.516,0.406,0.431,0.492,0.77,0.679,0.487,0.584
Calu-6,–,–,–,–,–,0.52,0.628,0.504,0.0906,0.0789,–,–,–,–,–,–,–,–,–
ChaGo-K-1,0.27,0.258,0.258,0.262,0.179,0.447,0.409,0.392,0.172,0.142,0.457,0.511,0.486,0.329,0.457,0.649,0.506,0.533,0.464
EBC-1,–,–,–,–,–,0.721,0.63,0.191,0.0599,0.082,–,–,–,–,–,–,–,–,–
EKVX,0.393,0.447,0.489,–,0.371,0.854,0.908,1.02,–,0.231,0.209,0.241,0.238,0.187,0.221,0.79,0.626,0.61,0.765
EMC-BAC-2,0.496,0.492,0.46,0.434,0.432,0.484,0.454,0.561,0.411,0.249,0.532,0.544,0.569,0.253,0.473,0.41,0.364,0.357,0.358
EPLC-272H,0.367,0.263,0.46,0.114,0.0633,0.825,0.864,0.302,0.0584,0.0607,0.261,0.283,0.302,0.29,0.39,0.334,0.286,0.31,0.299
H3255,0.544,0.601,0.578,0.423,0.249,0.565,0.609,0.668,0.402,0.235,0.348,0.424,0.385,0.327,0.334,0.591,0.56,0.764,0.548
HARA,0.241,0.23,0.252,0.0877,0.155,1.25,0.943,1.2,0.0637,0.0917,0.468,0.501,0.462,–,0.47,0.68,0.446,0.47,0.438
HCC-15,0.242,0.218,0.238,0.224,0.13,0.73,0.771,0.75,0.551,0.166,0.444,0.475,0.479,–,0.42,0.83,0.652,0.6,0.638
HCC-44,0.665,0.605,0.658,0.705,0.685,1.07,0.975,0.985,1.03,0.637,0.225,0.263,0.264,0.173,0.13,0.55,0.424,0.434,0.565
HCC-78,0.876,0.868,0.904,0.967,0.9,0.733,0.881,0.844,0.552,0.233,–,0.682,0.772,0.598,0.465,0.373,0.379,0.349,0.332
HCC-366,0.158,0.149,0.2,0.17,0.039,0.364,0.39,0.362,0.311,0.0358,0.597,0.609,0.65,–,0.695,0.856,0.796,0.762,0.568

Cell Line,relative viability (Carfilzomib + Pemetrexed; first compound 0.001 µM),relative viability (Carfilzomib + Pemetrexed; first compound 0.003162 µM),relative viability (Carfilzomib + Pemetrexed; first compound 0.01 µM),relative viability (Carfilzomib + Pemetrexed; first compound 0.03162 µM),relative viability (Carfilzomib + Pemetrexed; first compound 0.1 µM),relative viability (Carfilzomib + Olaparib; first compound 0.001 µM),relative viability (Carfilzomib + Olaparib; first compound 0.003162 µM),relative viability (Carfilzomib + Olaparib; first compound 0.01 µM),relative viability (Carfilzomib + Olaparib; first compound 0.03162 µM),relative viability (Carfilzomib + Olaparib; first compound 0.1 µM),relative viability (Crizotinib + Phenformin; first compound 0.01 µM),relative viability (Crizotinib + Phenformin; first compound 0.03162 µM),relative viability (Crizotinib + Phenformin; first compound 0.1 µM),relative viability (Crizotinib + Phenformin; first compound 0.3162 µM),relative viability (Crizotinib + Phenformin; first compound 1 µM),relative viability (Olaparib + OSI-027; first compound 0.08 µM),relative viability (Olaparib + OSI-027; first compound 0.253 µM),relative viability (Olaparib + OSI-027; first compound 2.53 µM),relative viability (Olaparib + OSI-027; first compound 8 µM)
HCC-827,0.252,0.267,0.277,0.254,0.155,0.671,0.619,0.712,0.643,0.108,0.359,0.397,0.412,0.346,0.397,0.772,0.732,0.872,0.65
HOP-62,0.404,0.304,0.417,0.0823,0.063,0.399,0.397,0.443,–,0.0477,0.7,0.625,0.731,0.556,0.714,0.863,0.801,0.809,0.712
IA-LM,–,–,–,–,–,1.06,0.779,0.738,0.0714,0.0425,–,–,–,–,–,–,–,–,–
LC-2-ad,0.275,0.302,0.28,0.273,0.232,0.673,0.715,0.667,0.637,0.237,0.572,0.6,0.544,0.463,0.544,0.926,0.731,0.856,0.796
LCLC-97TM1,0.164,0.176,0.173,0.167,0.0627,0.367,0.527,0.318,0.0498,0.0493,0.472,0.468,0.508,0.454,0.441,0.525,0.527,0.587,0.323
LCLC-103H,0.483,0.459,0.529,0.446,0.404,0.733,0.781,0.793,0.428,0.354,0.348,0.313,0.337,0.328,0.294,0.52,0.432,0.512,0.412
LK-2,0.304,0.295,0.273,0.0987,0.0939,0.646,0.661,0.86,0.149,0.149,0.583,0.37,0.221,–,0.325,0.2,0.193,0.189,0.175
LOU-NH91,0.368,0.451,0.471,0.314,0.335,0.923,0.992,0.871,0.34,0.287,0.684,0.756,0.788,0.706,0.683,0.764,0.638,0.764,0.729
LU99A,0.191,0.163,0.18,0.214,0.188,0.287,0.233,0.276,0.168,0.137,0.761,0.857,0.786,0.769,1,0.31,0.274,0.288,0.258
LXF-289,0.947,0.933,0.909,0.108,0.125,1.09,1.19,1.07,0.0687,0.0894,0.494,0.512,0.54,0.406,0.557,0.955,0.761,0.759,0.755
NCI-H23,0.532,0.666,0.508,0.165,0.169,0.365,0.391,0.287,0.0921,0.101,0.743,0.855,0.783,–,0.795,0.8,0.58,0.465,0.367
NCI-H322M,0.592,0.637,0.64,0.657,0.421,0.748,0.681,0.771,0.798,0.439,0.627,0.821,0.799,0.579,0.797,0.713,0.523,0.518,0.456
NCI-H358,0.169,0.164,0.173,0.136,0.102,0.639,0.692,0.583,0.0792,0.0776,0.231,0.324,0.26,0.309,0.347,0.648,0.727,0.727,0.588
NCI-H727,–,–,–,–,–,0.705,0.751,0.859,0.62,0.242,–,0.608,0.755,–,0.511,0.91,0.619,0.546,0.471
NCI-H1299,–,–,–,–,–,0.964,0.998,0.933,0.191,0.116,–,–,–,–,–,–,–,–,–
NCI-H1563,0.685,0.773,0.727,0.82,0.498,–,–,–,–,–,0.607,0.681,0.655,0.637,0.682,0.75,0.745,0.806,0.753
NCI-H1623,–,–,–,–,–,–,–,–,–,–,0.557,0.499,0.611,0.608,0.551,0.511,0.457,0.474,0.42
NCI-H1648,0.717,0.671,0.805,0.416,0.263,1.07,0.563,0.745,0.922,0.189,–,–,–,–,–,–,0.25,–,0.223
NCI-H1703,–,–,–,–,–,0.44,0.493,0.124,0.1,0.129,–,–,–,–,–,–,–,–,–

# Source: the supplement of paper PMC10307832
